The values below come from patent US7632863B2, “3,4,5,4′-tetramethoxyl-α,β-diphenylethane-3′-O-sodium sulphate and its use” (The Jian Cell Biomedical Research Co., Ltd., priority 2007, dated 2009).

Where two headings read alike, the source gives them in different places.

Series [1] has as its system S180 sarcoma. To be noted: i.v., S180 sarcoma-bearing mice. From the text: (§1) (1) Sample: 3,4,5,4′-tetramethoxyl-α,β-diphenylethane-3′-O-sodium sulphate (AS) provided by Zhejiang Cell Biomedical Research Co., Ltd., and prepared by the process in Example One. Dissolved by physiological saline for the concentration needed.
(2) Cisplatin: Cisplatin for injection (DDP), Qilu Pharmaceutical Co., Ltd. Batch No.: 5120282DC. Dissolved by physiological saline for preparation.
(3) Control product: Cyclophosphamide for injection (CTX), Jiangsu Hengrui Pharmaceutical Inc. Co. Batch No.: 04123021 Dissolved by physiological saline for preparation.
(§2) (1) KM mouse bearing S180 sarcoma.
(2) 70 KM mice, female, weighting 18-22 g, provided by Zhejing College of Traditional Chinese Medicine.
(1) Drawing ascites under aseptic condition from mouse bearing S180 sarcoma, diluting with physiologic saline 1:3, giving subcutaneous inoculation in the armpit of the right forelimb of the KM mice with 0.2 ml each; dividing the mice into 7 groups randomly the next day, 10 in each group.
(§3) (2) Administering drug to the mice by weight the third day of inoculation, intravenous administration 0.5 ml/20 g […], by weight, and putting them to death on the 11th day after inoculation, weighing the tumor and calculating the rate of tumor inhibition.
(§4) (3) dosage (mg/kg/d) and means of administration:
(§5) AS: 50 mg/kg, tail vein injection
(§6) AS: 100 mg/kg, tail vein injection
(§7) AS: 200 mg/kg, tail vein injection
DDP: 1 mg/kg, tail vein injection
AS+DDP: 50 mg/kg+1 mg/kg, tail vein injection
(§8) CTX: 30 mg/kg, tail vein injection
(§9) Setting up another blank control group, tail vein injection of 0.9% NaCl 0.5 ml.
(§10) (4) Judging the result with the following formula: […]

The test system of another series is Lewis lung cancer. Description: Joint administration of AS and DDP, murine model of Lewis lung cancer (Example Five). It counts as in vivo, C57BL/6J mice. To be noted: mice bearing Lewis lung cancer.
Description: (1) Sample: 3,4,5,4′-tetramethoxyl-α,β-diphenylethane-3′-O-sodium sulphate (AS), raw material medicine, provided by Zhejiang Cell Biomedical Research Co., Ltd., and prepared by the process in Example One. Batch No.: 061025. Dissolved by physiological saline for the concentration needed.
(2) Cisplatin: Cisplatin for injection (DDP), Qilu Pharmaceutical Co., Ltd. Batch No.: 5120282DC; Dissolved by physiological saline for preparation
(3) Control product: Cyclophosphamide for injection (CTX), Jiangsu Hengrui Pharmaceutical Inc. Co. Batch No.: 04123021. Dissolved by physiological saline for preparation.
(1) C57BL/6J mouse bearing Lewis lung cancer
(2) 70 C57BL/6J mice, female, weighing 17-21 g. Provided by the animal house of Zhejiang Cell Biomedical Research Co., Ltd.
(1) Taking tumor from C57BL/6J mouse under aseptic condition, grinding and diluting it by physiological saline 1:3 (weight:volume), and giving hypodermic inoculation 0.2 ml per mouse in the armpit of the right forelimb of each mouse. dividing the mice into 7 groups randomly the next day, 10 in each group.
(2) After inoculation, waiting till the tumor has grown to the accessible size, administering medicine according to body weight, 0.5 ml/20 g intravenous, for 11 days, putting the mice to death on the 19th after inoculation, taking out and weighing the tumor, and calculating the tumor inhibiting rate.
as §10

In series [2] the test system is S180 sarcoma. To be noted: Dosage 1 mg/kg, i.v., S180 sarcoma-bearing mice.
Description: as §1
(2) Control product: Cyclophosphamide for injection (CTX), Jiangsu Hengrui Pharmaceutical Inc. Co. Batch No.: 04123021 Dissolved by physiological saline for preparation.
as §2
(2) 50 KM mice, female, weighting 18-22 g, provided by Zhejing College of Traditional Chinese Medicine.
(1) Drawing ascites under aseptic condition from mouse bearing S180 sarcoma, diluting with physiologic saline 1:3, giving subcutaneous inoculation in the armpit of the right forelimb of the KM mice with 0.2 ml each; dividing the mice into 5 groups randomly the next day, 10 in each group.
as §3, §4, §5, §6, §7, §8, §9, §10

The conditions of series [3]: background statement, species and route not given; cited from earlier work.

One may read the LD50 as the dose at which mortality reaches 50%.

Consider `O=P1(N(CCCl)CCCl)NCCCO1` (stereo not drawn) [CTX, Cyclophosphamide, reference compound], for which, in the series on S180 sarcoma [1] (Dosage 1 mg/kg), the 0 d weight came out at 21.18 ± 0.64 g, the “11 d weight without tumor” value is recorded as 26.28 ± 1.72 g, the “Tumor inhibiting rate %” value came out at 69% and the Tumor weight is on record as 0.90 ± 0.26 g. Moreover, in the series with Lewis lung cancer (Dosage 30 mg/kg, i.p.), the “Tumor inhibiting rate %” value stood at 64.3% and the Tumor weight was determined as 1.68 ± 0.15 g. Also, in the series with S180 sarcoma [2], the 0 d weight was 21.18 ± 0.64 g, the “11 d weight without tumor” value is listed as 26.28 ± 1.72 g, the “Tumor inhibiting rate %” value was found to be 69% and the Tumor weight was 0.90 ± 0.26 g.

For the molecule `COc1ccc(/C=C\c2cc(OC)c(OC)c(OC)c2)cc1O` [Combretastatin A-4], the LD50 in series [3] is given as 500 mg/kg.

In the case of `N.N.[Cl][Pt][Cl]` [DDP, Cisplatin, reference compound], the “Tumor inhibiting rate %” value in the series with S180 sarcoma [1] (Dosage 30 mg/kg) was found to be 70%; with Lewis lung cancer (Dosage 1 mg/kg, i.v.) it was 46.4%. Moreover, the Tumor weight with S180 sarcoma [1] (Dosage 30 mg/kg) came to 0.88 ± 0.50 g; in the series with Lewis lung cancer (Dosage 1 mg/kg, i.v.), 2.52 ± 0.80 g.
